Test results from patent EP0013144A1, “Substituted diphenylamine derivatives, compositions and herbicidal uses thereof, and processes for their preparation” (ICI AUSTRALIA LIMITED, priority 1978, dated 1980).

Tests used:
Type in all cases: in vivo
Wheat [1] = test: Post-emergence herbicidal activity (Example 32); design: key: 0-3 scale: 0 = 0-25% damage, 3 = 75-99% kill, 3+ = 100% kill; details: 3 weeks after spraying
Outline: (§1)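 Glasshouse-grown seedlings reaching roughly 10–12.5 cm height were sprayed with water-diluted formulations, either toluene-based emulsifiable concentrates or ball-milled suspensions. After a further 3 weeks, injury was scored by eye against untreated plants: 0 = 0–25% damage, 3 = 75–99% kill, 3+ = complete kill.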

Japanese millet [2] = test: Pre-emergence herbicidal activity (Example 31); details: after three weeks
Outline: (§2)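 Visual damage score at three weeks: 0 = 0–25% damage, 3 = 75–99% kill, 3+ = 100% kill. Soil boxes with seeds sown 2 cm deep were sprayed before emergence with water-diluted emulsifiable concentrate or suspension, then grown in a glasshouse alongside unsprayed controls.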

Sunflower [3] = test: Pre-emergence herbicidal activity (Example 31); details: after three weeks
Outline: as §2

Ipomea [4] = test: Pre-emergence herbicidal activity (Example 31); details: after three weeks
Outline: as §2

Mustard = test: Pre-emergence herbicidal activity (Example 31); details: after three weeks
Outline: as §2

Japanese millet [5] = test: Post-emergence herbicidal activity (Example 32); details: 3 weeks after spraying
Outline: as §1

Sunflower [6] = test: Post-emergence herbicidal activity (Example 32); details: 3 weeks after spraying
Outline: as §1

Ipomea [7] = test: Post-emergence herbicidal activity (Example 32); details: 3 weeks after spraying
Outline: as §1

Ryegrass [8] = test: Post-emergence herbicidal activity (Example 32); details: 3 weeks after spraying
Outline: as §1

Wheat [9] = test: Pre-emergence herbicidal activity (Example 31); design: key: 0-3 scale: 0 = 0-25% damage, 3 = 75-99% kill, 3+ = 100% kill; details: after three weeks
Outline: as §2

Ryegrass [10] = test: Pre-emergence herbicidal activity (Example 31); design: key: 0-3 scale: 0 = 0-25% damage, 3 = 75-99% kill, 3+ = 100% kill; details: after three weeks
Outline: as §2

Annual Rye Grass = test: Selective herbicidal activity, seed boxes (Example 34); details: weed; 0.15 kg/ha; sprayed on one week old seedlings; 29 days after spraying; triplicate
From the text: (§3) The seeds of the test species were sprinkled onto . the surface of soil in seed boxes and covered with a thin layer of sand. The boxes were lightly watered with an overhead spray and placed in a glasshouse for one week to permit germination of the seeds and plant growth to a height of 4 to 5 inches. […] For comparison purposes at least one box containing one week old seedlings was sprayed lightly with water only. After spraying the boxes were returned to the glasshouse for a further 29 days after which the effect of the treatment was visually assessed.

Soyabean = test: as above; details: crop; 1.5 kg/ha; sprayed on one week old seedlings; 29 days after spraying; triplicate
From the text: as §3

Japanese millet [11] = test: as above; details: weed; 0.15 kg/ha; sprayed on one week old seedlings; 29 days after spraying; triplicate
From the text: as §3

Sorghum halepense = test: as above; details: weed; 0.15 kg/ha; sprayed on one week old seedlings; 29 days after spraying; triplicate
From the text: as §3

Setaria aviceps = test: as above; details: weed; 0.15 kg/ha; sprayed on one week old seedlings; 29 days after spraying; triplicate
From the text: as §3

Wild Oats = test: as above; details: weed; 0.15 kg/ha; sprayed on one week old seedlings; 29 days after spraying; triplicate
From the text: as §3

Cotton = test: as above; details: crop; 1.5 kg/ha; sprayed on one week old seedlings; 29 days after spraying; triplicate
From the text: as §3

Compound: CC(Oc1ccc(Nc2ccc(C(F)(F)F)cc2[N+](=O)[O-])cc1)C(=O)O (centres unmarked) [Compound 46, 2[4-(2-Nitro-4-trifluoromethylanilino)phenoxy]-propionic acid]
- damage to plants, Wh (Wheat [1]; 1 kg/ha): 2
- damage to plants, Wh (Wheat [1]; 5 kg/ha): 3+ (3+ represents 100% kill)
- damage to plants, Jm (Japanese millet [2]; 1 kg/ha): 3 (3 represents 75 to 99% kill)
- damage to plants, Jm (Japanese millet [2]; 5 kg/ha): 3+ (3+ represents 100% kill)
- damage to plants, Sf (Sunflower [3]; 1 kg/ha): 0 (0 represents from 0 to 25% damage)
- damage to plants, Sf (Sunflower [3]; 5 kg/ha): 0 (0 represents from 0 to 25% damage)
- damage to plants, Ip (Ipomea [4]; 1 kg/ha): 0 (0 represents from 0 to 25% damage)
- damage to plants, Ip (Ipomea [4]; 5 kg/ha): 0 (0 represents from 0 to 25% damage)
- damage to plants, Ms (Mustard; 1 kg/ha): 0 (0 represents from 0 to 25% damage)
- damage to plants, Ms (Mustard; 5 kg/ha): 0 (0 represents from 0 to 25% damage)
- damage to plants, Jm (Japanese millet [5]; 1 kg/ha): 3+ (3+ represents 100% kill)
- damage to plants, Jm (Japanese millet [5]; 5 kg/ha): 3+ (3+ represents 100% kill)
- damage to plants, Sf (Sunflower [6]; 1 kg/ha): 0 (0 represents 0 to 25% damage)
- damage to plants, Sf (Sunflower [6]; 5 kg/ha): 2
- damage to plants, Ip (Ipomea [7]; 1 kg/ha): 0 (0 represents 0 to 25% damage)
- damage to plants, Ip (Ipomea [7]; 5 kg/ha): 0 (0 represents 0 to 25% damage)
- damage to plants, Rg (Ryegrass [8]; 1 kg/ha): 3+ (3+ represents 100% kill)
- damage to plants, Rg (Ryegrass [8]; 5 kg/ha): 3+ (3+ represents 100% kill)
- damage to plants, Wh (Wheat [9]; 1 kg/ha): 0 (0 represents from 0 to 25% damage)
- damage to plants, Wh (Wheat [9]; 5 kg/ha): 2
- damage to plants, Rg (Ryegrass [10]; 1 kg/ha): 2
- damage to plants, Rg (Ryegrass [10]; 5 kg/ha): 3+ (3+ represents 100% kill)
- percentage damage, Rg (Annual Rye Grass): 55 percentage
- percentage damage, Sb (Soyabean): 38 percentage
- percentage damage, Jm (Japanese millet [11]): 85 percentage
- percentage damage, Sh (Sorghum halepense): 88 percentage
- percentage damage, St (Setaria aviceps): 55 percentage
- percentage damage, Ot (Wild Oats): 50 percentage
- percentage damage, Ct (Cotton): 50 percentage
